Experiments:
[1] = XRPD of binary Cyclobenzaprine HCl/mannitol mixtures (Example 3); type: physicochemical; details: Cyclobenzaprine HCl/mannitol mixtures 30, 50, 65, 75 and 90% API, no thermal treatment
Method: In order to confirm the eutectic formation and to characterize its physical properties, several binary mixtures at different ratios of API-excipient were prepared and analyzed by DSC and by X-ray powder diffraction (XRPD). The mixtures were obtained by gently milling in agate mortar of micronized Cyclobenzaprine HCl and mannitol, in order to obtain homogeneous distribution of the particles. For each DSC heating curve, the onset temperature and the enthalpy were evaluated both for the eutectic contribute and for the excess of component. The recorded values were plotted and a phase diagram between the two components was obtained with a characteristic profile of phase diagrams of eutectic mixtures.
Mixtures also were investigated by XRPD and compared with the patterns of pure components. […] The XRPD patterns obtained in the mixtures, compared with pure components, were plotted in order to confirm the linearity of the peak intensities (cpf) of mannitol and Cyclobenzaprine HCl, and a proportional peak height at characteristic 2 theta angles.
X-ray powder diffraction (XRPD) tests were performed with a ULTIMA IV (Rigaku) instrument, laying the sample on a static sample holder. […] The radiation generated by the Cockcroft-Walton method is constituted by Kα1 (1.540562 Å) and Kα2 (1.544398 Å). […]

[2] = DSC, FT-IR/ATR and XRPD compatibility of Cyclobenzaprine HCl with additional excipients, mixed (A) and milled (B) 1:1 mixtures (Example 2); type: physicochemical; details: DSC; for Interactions between Cyclobenzaprine HCl and excipients, Mixture 1:1 (mixed): mixture A, mechanical mixing only; for Interactions between Cyclobenzaprine HCl and excipients, Mixture 1:1 (milled): mixture B, ground in agate mortar
Method: As described above, thermal analytical techniques were further used to assess the compatibility of a drug product (tablet) containing Cyclobenzaprine HCl (API). The compatibility assessment was carried out between the API and additional excipients in a 1:1 ratio. The 1:1 API-excipient mixtures were formed in two different ways: first, by mixing only, and second, by strong milling in an agate mortar. The thermal behavior recorded in the two different mixtures were compared with those of the single components. On the basis of thermal events recorded for each component and for the mixtures, the analyses were carried out by investigating the meanings of the peaks recorded by differential scanning calorimetry (DSC) in mixtures between the API and the excipients. Furthermore, in order to define the nature of the interaction, the Fourier Transformate Infra Red Spectroscopy with Total Attenuated Reflectance (FT-IR/ATR) and X-ray powder diffraction (XRPD) of some samples (API, excipient, and mixed and milled mixtures) was carried out and compared.
Aliquots of API and each excipient were weighed in a ratio of 1:1 and ground in an agate mortar. Then, the homogeneous mixtures were analyzed. These sample mixtures were labeled “B”, while the mechanical-only mixtures were labeled “A.”
The DSC heating curves were obtained by TA 821 DSC Mettler instrument under the following conditions: • Heating rate: 10° C./min • Ambient: Nitrogen 30 mL/min • Sample holder: normal open aluminum pan • Temperature range: from 25° C. to 250° C. • Instrument calibration: Indium sample purity 99.999% Fourier Transformate Infra Red Spectroscopy with Total Attenuated Reflectance (FT-IR/ATR)
The FT-IR spectra were collected with a Perkin Elmer spectrum Two instrument with air as background and 4 cm^−1 resolution.
X-ray powder diffraction (XRPD) tests were performed with the ULTIMA IV instrument (Rigaku), laying the sample on a static sample holder. The X-ray focusing slit has a variable width, interlocked with the q value. The X-ray tube has a Copper target, with a current intensity of 40 mA and a voltage of 40 kV. Radiation was generated by the Cockcroft-Walton method, and was constituted by Kα1 (1.540562 Å) and Kα2 (1.544398 Å). The analytical conditions were: • Fixed Time; sampling width 0.02 deg, scanning rate 1.3 s/step, 2 q range 3.35 deg and sample holder; amorphous glass equiangular 9200/2G, 0.2 mm deep. The sample was pressed with a glass plate.

## OC[C@@H](O)[C@@H](O)[C@H](O)[C@H](O)CO [Mannitol]
[1]
  Adduct formation by XRPD: no adduct formation, only a physical eutectic formation
[2]
  Interactions between Cyclobenzaprine HCl and excipients, Mixture 1:1 (mixed): Eutectic
  Interactions between Cyclobenzaprine HCl and excipients, Mixture 1:1 (milled): Eutectic
[2]; listed as mannitol
  Interactions between Cyclobenzaprine HCl and excipients, Mixture 1:1 (mixed): physical complex interaction peak (eutectic)
  Interactions between Cyclobenzaprine HCl and excipients, Mixture 1:1 (milled): physical complex interaction peak (eutectic)
